Source: patent US7723307B2, “Amino acid derivatives and pharmaceutical uses thereof” (Aston University, priority 2003, dated 2010)

How the values were obtained:
TGase [1] = experiment: 14C-putrescine incorporation into N,N'-dimethyl casein in kidney homogenates of treated SNx rats; assay type: in vivo, rat; details: day 84
Description: (§1) Male Wistar rat of approximately 300 g weight was anaesthetised using 5% halothane and maintained at 3% for the duration of the surgical procedure. The rat was subjected to a ⅚th subtotal nephrectomy (SNx) by ligation of the left renal artery and vein followed by complete nephrectomy of the left kidney. The right kidney had both the upper and lower poles ligated followed by excision of both poles. A 9-cm cannula (0.32 mm bore) was sealed on one end and fenestrated between 3 and 12 mm from the sealed end. This was then inserted through the parenchyma (cut to cut/pole to pole) of the kidney so that the blunt end was just visible through one of the cut ends. This was then sealed in position using tissue glue on both ends of the kidney such that the fenestrated area was within the remnant kidney. The cannula was passed through the muscle wall, which was then stitched using reabsorbable sutures. The cannula was then attached to the regulator of a 2 ml osmotic minipump (Azlet osmotic minipump (2 ml4), Charles Rivers, UK) that was loaded (primed for 15 hrs at RT) with either PBS (SNx) or TGase inhibitor 281 or 283 (SNx+281 and SNx+283, respectively) at a concentration of 50 mM (delivery 1.5 μl per hour). The pump was then positioned subcutaneously on the right upper flank of the animal and the skin sutured. […]

tissue transglutaminase = target: T1, tissue transglutaminase (UniProt P08587); experiment: TGase-mediated crosslinking of fibronectin, SDS-PAGE; assay type: biochemical; details: compound 250 μM, TGase and fibronectin 50 μg/ml each, 37° C. for 2 hr
T1 sequence (P08587 1-690): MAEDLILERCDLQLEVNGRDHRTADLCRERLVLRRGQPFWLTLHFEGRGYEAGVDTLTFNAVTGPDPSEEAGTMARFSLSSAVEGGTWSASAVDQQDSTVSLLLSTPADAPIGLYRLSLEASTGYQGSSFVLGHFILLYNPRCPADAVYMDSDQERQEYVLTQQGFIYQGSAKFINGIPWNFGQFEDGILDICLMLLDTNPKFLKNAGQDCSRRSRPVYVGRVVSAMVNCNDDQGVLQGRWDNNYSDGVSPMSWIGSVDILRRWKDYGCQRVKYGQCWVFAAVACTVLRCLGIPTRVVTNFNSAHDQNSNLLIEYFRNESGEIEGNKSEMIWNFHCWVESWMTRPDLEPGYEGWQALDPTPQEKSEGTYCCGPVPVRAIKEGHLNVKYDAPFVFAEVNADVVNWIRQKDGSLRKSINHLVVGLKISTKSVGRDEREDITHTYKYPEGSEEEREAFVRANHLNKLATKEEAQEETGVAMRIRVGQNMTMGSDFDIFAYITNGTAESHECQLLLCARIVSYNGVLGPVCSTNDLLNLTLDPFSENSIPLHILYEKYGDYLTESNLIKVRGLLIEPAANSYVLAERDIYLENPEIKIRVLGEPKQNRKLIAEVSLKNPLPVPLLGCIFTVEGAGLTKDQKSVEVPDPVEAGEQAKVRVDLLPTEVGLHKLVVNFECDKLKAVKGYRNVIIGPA
Method: • 1. Preactivate TGase in 3 mM DTT (where applicable) on ice for 1 hr. • 2. Crosslink TGase with fibronectin in 40 mM Tris/100 mM NaCl at 50 μg/ml final concentration each, according to Table 1 below. Include non-activated Tgase/preactivated Tgase controls in the presence and absence of the inhibitors to investigate potential homodimer formation. • 3. Incubate at 37° C. for 2 hr to allow crosslink formation to take place. • 4. Solubilise crosslink in 2× Laemmli buffer. Vortex and spin down insoluble material. • 5. Load 20 μg of total protein (Tgase+Fn) on a 7% acrylamide SDS PAGE gel. Run gel at […] until dye escapes from the bottom of the gel. • 6. Stain with coomassie brilliant blue for 1 hr at RT. • 7. De-stain in 30% methanol/10% acetic acid at RT.
SDS-PAGE data showing tTGase-mediated crosslinking of fibronectin following treatment with exemplary compounds of the invention is shown in FIG. 22.

TGase [2] = experiment: In situ TGase activity in kidney cryostat sections of treated SNx rats; assay type: in vivo, rat; details: SNx rats treated for 28 days, biotin cadaverine incorporation
Description: as §1, with “sutures.” for “sutures. The cannula was then attached to the regulator of a 2 ml osmotic minipump (Azlet osmotic minipump (2 ml4), Charles Rivers, UK) that was loaded (primed for 15 hrs at RT) with either PBS (SNx) or TGase inhibitor 281 or 283 (SNx+281 and SNx+283, respectively) at a concentration of 50 mM (delivery 1.5 μl per hour). The pump was then positioned subcutaneously on the right upper flank of the animal and the skin sutured.”
Rat kidneys treated in vivo with TGase inhibitors were snap-frozen in liquid nitrogen and 14 μm sections were cut using a cryostat and allowed to air-dry. […] Slides were viewed on a Leica TCSNT confocal microscope equipped with excitation and emission filters for Cy5, and emitted fluorescence was quantified with the software supplied by the manufacturer. […]

SNx rats = experiment: Renal function in subtotal nephrectomy (SNx) rats with inhibitor instilled into the kidney by osmotic minipump; assay type: in vivo, rat; details: 90 day SNx rats, inhibitor 50 mM instilled into kidney, 5 animals per group
Description: Male Wistar rat of approximately 300 g weight was anaesthetised using 5% halothane and maintained at 3% for the duration of the surgical procedure. The rat was subjected to a ⅚th subtotal nephrectomy (SNx) by ligation of the left renal artery and vein followed by complete nephrectomy of the left kidney. The right kidney had both the upper and lower poles ligated followed by excision of both poles. A 9-cm cannula (0.32 mm bore) was sealed on one end and fenestrated between 3 and 12 mm from the sealed end. This was then inserted through the parenchyma (cut to cut/pole to pole) of the kidney so that the blunt end was just visible through one of the cut ends. This was then sealed in position using tissue glue on both ends of the kidney such that the fenestrated area was within the remnant kidney. The cannula was passed through the muscle wall, which was then stitched using reabsorbable sutures. The cannula was then attached to the regulator of a 2 ml osmotic minipump (Azlet osmotic minipump (2 ml4), Charles Rivers, UK) that was loaded (primed for 15 hrs at RT) with either PBS (SNx) or TGase inhibitor 281 or 283 (SNx+281 and SNx+283, respectively) at a concentration of 50 mM (delivery 1.5 μl per hour). The pump was then positioned subcutaneously on the right upper flank of the animal and the skin sutured. The animal was then switched onto oxygen and allowed to partially regain consciousness before being returned to the cage. The pump was changed every 28 days under halothane anaesthesia. […] The animal was then anaesthetised, the remnant kidney recovered and a terminal blood sample collected.
Proteinuria, creatinine clearance, serum clearance, urine creatinine and urine urea were carried out by standard clinical chemistry techniques (Johnson et al., 1997, J. Clin. Invest. 99:2950-2960). Creatinine and urea were measured by the standard autoanalyser technique and proteinura by the Biuret method (Johnson et al., supra). Data represent mean values ±SE, taken from 5 animals per group.

With C[S+](C)CC(=O)CCC(NC(=O)C(Cc1ccccc1)NC(=O)OCc1ccccc1)C(=O)O [Compound 281, N-Benzyloxycarbonyl-L-phenylalanyl-6-dimethylsulfonium-5-oxo-L-norleucine] the “TGase activity by 14C-putrescine incorporation in kidney homogenates (FIG. 25b)” value (TGase [1]) was “inhibition”, the “tTGase-mediated crosslinking of fibronectin (FIG. 22)” value (tissue transglutaminase) was “inhibition” and the “In situ TGase activity in kidney cryostat sections (FIG. 25a)” value (TGase [2]) was “inhibition”. The “Proteinuria, Mean” value (SNx rats) was 503 mg/24 h, the Serum creatinine, Mean (SNx rats) was 208 µM and the “Serum urea, Mean” value (SNx rats) was 22.32 mM/L. For the same compound, the Urine creatinine, Mean (SNx rats) was 4000 µM and the “Urine urea, Mean” value (SNx rats) was 372 mM/L.

CC(=O)CSc1n(C)cc[n+]1C.[Cl-] [Compound 283, 1,3-dimethyl-2-(2-oxopropylsulfanyl)-3H-1,3-diazol-1-ium-chloride, reference compound] was tested, and the “TGase activity by 14C-putrescine incorporation in kidney homogenates (FIG. 25b)” value (TGase [1]) was “inhibition”, the “In situ TGase activity in kidney cryostat sections (FIG. 25a)” value (TGase [2]) was “inhibition” and the “Proteinuria, Mean” value (SNx rats) was 835 mg/24 h. The Serum creatinine, Mean (SNx rats) was 114 µM, the “Serum urea, Mean” value (SNx rats) was 16.3 mM/L and the Urine creatinine, Mean (SNx rats) was 3140 µM. For the same compound, the “Urine urea, Mean” value (SNx rats) was 272 mM/L.

With C[S+](C)CC(=O)CCC(NC(=O)C(CCC(N)=O)NC(=O)OCc1ccccc1)C(=O)O [Compound 285, N-Benzyloxycarbonyl-L-glutaminyl-6-dimethylsulfonium-5-oxo-L-norleucine] the “tTGase-mediated crosslinking of fibronectin (FIG. 22)” value (tissue transglutaminase) was “inhibition”.
